Here are results for two compounds from patent publication EP4653435A1, “PRMT5-MTA INHIBITOR” (Suzhou Puhe Biopharma Co., Ltd., priority 2023, dated 2024).

SMILES strings stand for the structures.

One data set relates to HCT116-MTAPwt. Briefly: 2D antiproliferative assay (CTG cell viability), wild-type cells. It counts as cell-based. Conditions: Homo sapiens, HCT-116, 7-10 days.
Another data set deals with HCT116-MTAPdel. Briefly: 2D antiproliferative assay (CTG cell viability), MTAP-deficient cells. It counts as cell-based. Conditions: for IC50: Homo sapiens, HCT-116, HCT116 MTAP-deficient cells, 7-10 days, CTG, read-out: HCT116-MTAPdel/IC50/nM; for HCT116WT IMTAPdel selectivity: ratio IC50 wild type / MTAPdel, antiproliferation.
The nature of data set [1]: in vitro. Conditions: human, microsomes.
Experimental: (§3) The compounds to be tested were co-incubated with liver microsomes of different species with or without the addition of NADPH. The final concentration of the test compounds in the test system was 1 µM, the final concentration of NADPH was 1 mM, and the final concentration of liver microsomes was 0.5 mg/mL.
Data set [2] deals with HUP-T4 (MTAPdel) human pancreatic cancer tumor cells. Briefly: In vivo efficacy, HUP-T4 subcutaneous xenograft. Further details: species or system BALB/c nude mice. Conditions: BID, oral; for TGI: 28 consecutive days; for Tumor volume (mm^3)-D1: D1 (baseline at start of dosing). As for the experimental part:
HUP-T4 (MTAPdel) human pancreatic cancer tumor cells (MEM medium with 10% fetal bovine serum) were cultured and inoculated into 6-8 week old female BALB/c nude mice (weighing about 25 g), with all mice subcutaneously inoculated. The mice were cultured in an SPF-grade environment, and all mice had free access to commercially certified standard diets. Test compounds were orally administered daily once the average tumor volume of the mice grew to about 176 mm^3. The control group received blank solvent (0.1% TW80+0.5% methylcellulose+99.4% saline), while the test group received a drug dose of 75 mg/kg or 50 mg/kg, twice a day. Tumor volume was measured in two dimensions with calipers three times a week, and the animals were weighed every day. […] Voume calculation formula: V=1/2a*b^2, where a denotes the long diameter of the tumor, and b the short diameter of the tumor.

The next data set relates to SDMA/HCT116-MTAPwt. Briefly: In-cell arginine symmetric dimethylation inhibition (In-cell western, ICW), wild-type cells. Conditions: Homo sapiens, HCT-116, 96 hours. It counts as cell-based.
Data set [3] is described as follows: Mouse pharmacokinetics testing. It counts as in vivo, CD1 female mice. Conditions: female, CD1, mouse, in vivo. As for the experimental part:
CD1 female mice were used as test animals and administered the compounds orally/intravenously (oral dosage was 10 mg/kg and intravenous dosage was 2 mg/kg). Test protocol: Each oral and intravenous group consisted of three mice. […] Plasma drug concentrations after oral and intravenous administration were determined by LC/MS/MS, and the collected data analyzed using AB Sciex QTRAP 6500 software.

Data set [4] in a line: Liver microsomal stability assay, mouse. It counts as in vitro ADME. Conditions: mouse liver microsomes 0.5 mg/mL, compound 1 µM, NADPH 1 mM, 60 minute.
Experimental: as §3
Data set [5] in a line: in vitro. Conditions: dog, MDCK-MDR1, pH 7.4. As to the method: (§1) The membrane permeability of the molecules of the present invention was evaluated to predict their permeability to the brain.
(§2) The specific procedure was: 1. MDCK-MDR1 cells were pre-cultured at a density of 1.56*10^6 cells/mL in a 96-well plate at 37°C for 7 days. 2. The MDCKII-MDR1 plate was taken out of the incubator, rinsed twice with pre-warmed HBSS (10 mM HEPES, pH 7.4), and then incubated at 37°C for 30 minutes. 3. The stock solution of the compound to be tested was diluted with DMSO to obtain a 0.2 mM solution, and then diluted with HBSS (10 mM HEPES, pH 7.4) to obtain a 1 µM working solution. A blank control group was also diluted with DMSO to obtain a 0.2 mM solution, and then diluted with HBSS (10 mM HEPES, pH 7.4) to obtain a 1 µM working solution. The final concentration of DMSO in the culture system was 0.5%. 4. The transport rate of the drug in the apical to basolateral direction was determined: 125 µL of the 1 µM test compound solution was added to a Transwell insert (top compartment), before immediately transferring a 50 µL sample (D0 sample) from the top comparment to a new 96-well plate. The receiving plate wells (basolateral compartment) were filled with 235 µL HBSS (10 mM HEPES, pH 7.4) and incubated at 37°C for 2 hours. 5. Upon completion of the incubation, 50 µL samples were transferred from the donor and acceptor sides to the wells of a new 96-well plate, before adding 4 volumes of cold acetonitrile containing an appropriate internal standard (IS). Prior to LC-MS/MS analysis, 100 µL of the supernatant was taken and mixed with an appropriate volume of ultrapure water. Papp = (VA×[drug]acceptor)/(Area×Time×[drug]initial,donor) [formula] where VA is the volume of the receptor pores (unit:mL), Area is the surface area of the membrane (0.143 cm^2 for a Transwell-96 well permeable support), and time is the total transport time in seconds. Efflux Ratio = Papp(B−A) /Papp(A−B) [formula]

The next data set relates to MDR1 (P-gp). The data set can be described thus: in vitro. Conditions: dog, MDCK-MDR1, pH 7.4. As for the experimental part:
as §1, §2

Another data set has as its system SDMA/HCT116-MTAPdel. Briefly: In-cell arginine symmetric dimethylation inhibition (In-cell western, ICW), MTAP-deficient cells. It counts as cell-based.
In the next data set the target is hERG channels (Homo sapiens, UniProt Q12809). Briefly: cell-based.
Data set [6] in a line: Liver microsomal stability assay, human. Conditions: liver microsomes. In general terms: Microsomes from liver hold many membrane-bound enzymes, among them those of drug oxidation.
Experimental: as §3

hERG channels, sequence (Q12809 whole entry): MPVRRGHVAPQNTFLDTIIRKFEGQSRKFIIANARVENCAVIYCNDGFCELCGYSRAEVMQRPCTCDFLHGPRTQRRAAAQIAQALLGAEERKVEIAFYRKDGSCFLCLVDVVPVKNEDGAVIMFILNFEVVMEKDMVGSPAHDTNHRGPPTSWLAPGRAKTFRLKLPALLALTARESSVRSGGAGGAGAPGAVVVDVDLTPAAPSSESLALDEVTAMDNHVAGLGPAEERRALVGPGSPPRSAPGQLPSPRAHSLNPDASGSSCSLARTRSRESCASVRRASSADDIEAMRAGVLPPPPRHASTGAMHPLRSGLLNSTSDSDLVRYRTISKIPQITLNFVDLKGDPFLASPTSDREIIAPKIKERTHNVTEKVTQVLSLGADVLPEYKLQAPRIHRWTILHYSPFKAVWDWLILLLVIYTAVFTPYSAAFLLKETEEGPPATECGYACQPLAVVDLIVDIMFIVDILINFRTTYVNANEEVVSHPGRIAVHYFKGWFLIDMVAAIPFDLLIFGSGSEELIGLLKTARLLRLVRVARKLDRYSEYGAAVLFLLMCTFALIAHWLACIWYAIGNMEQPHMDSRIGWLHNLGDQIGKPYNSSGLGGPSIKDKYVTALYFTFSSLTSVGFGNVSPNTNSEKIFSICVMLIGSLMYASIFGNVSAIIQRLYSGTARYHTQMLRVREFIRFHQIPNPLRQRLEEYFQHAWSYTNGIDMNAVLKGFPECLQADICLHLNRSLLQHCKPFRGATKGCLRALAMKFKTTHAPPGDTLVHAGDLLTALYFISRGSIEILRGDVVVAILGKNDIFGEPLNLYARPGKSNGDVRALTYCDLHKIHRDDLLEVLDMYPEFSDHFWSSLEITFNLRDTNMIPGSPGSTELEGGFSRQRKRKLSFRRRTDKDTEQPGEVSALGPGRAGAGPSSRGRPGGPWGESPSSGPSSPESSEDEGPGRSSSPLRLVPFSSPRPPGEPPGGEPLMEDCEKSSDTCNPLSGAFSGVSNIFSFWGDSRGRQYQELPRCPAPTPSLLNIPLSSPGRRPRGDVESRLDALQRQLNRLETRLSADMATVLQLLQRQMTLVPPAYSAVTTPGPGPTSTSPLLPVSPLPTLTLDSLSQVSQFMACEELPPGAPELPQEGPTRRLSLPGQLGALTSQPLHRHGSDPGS
Experimental for hERG channels: The CHO hERG-Duo cell line stably expressing hERG channels was purchased from B'SYS GmbH and screened for monoclonal clones using the patch clamp system of Pharmaron Beijing Co., Ltd. The cells were cultured in a medium containing F12 (HAM) medium, 10% fetal bovine serum, 100 U/mL penicillin-streptomycin, 100 µg/mL hygromycin, and 100 µg/mL G418.
The membrane was depolarized to +30 mV for 4.8 seconds before returning the voltage to -50 mV for 5.2 seconds to remove inactivation and measure the deactivation tail current. The sampling interval was 15 seconds, and the peak tail current size was used to quantify the hERG current amplitude.
A blank vehicle was applied to the cells to establish a baseline. Test samples were introduced after stabilizing the hERG current for at least 5 minutes. In the presence of the test compound, the hERG current at different working concentrations was recorded for no less than 5 minutes until reaching a steady state, before capturing 5 sweeps. If a steady state was not reached within 10 minutes, the mean peak current of the last 5 sweeps was taken instead of the steady-state value. […] Peak current inhibition = (1−(Peak tail currentcompound −Peak tail currentpositive control)/(Peak tail currentBlank vehicle −Peak tail currentpositive control)) × 100 [formula]

Compound `CN(C(=O)C(=O)Nc1cnc(N)c2c1cnn2C)C1COc2cc(SC(F)(F)F)ccc21` (racemic) [Compound P29] showed an IC50 in the data set on HCT116-MTAPwt of 3300 nM. Also, in the data set on HCT116-MTAPdel, the IC50 stood at 20 nM and the “HCT116WT IMTAPdel selectivity” value is on record as 165. This compound also returned an intrinsic clearance (CLint scaled) at 1 h, 1 µM in the data set “in vitro [1]” of 25.9 mL/min/kg.
In the data set on HCT116-MTAPwt, `[2H]C([2H])([2H])N(C(=O)C(=O)Nc1cnc(N)c2c1cnn2C)[C@@H]1COc2cc(SC(F)(F)F)ccc21` [Compound P32] displayed an IC50 of 1750 nM. For the same compound, in data set [2] (50 mg/kg), the TGI came to 97%, the “Tumor volume (mm^3)-D1” value is on record as 176 mm^3 and the “Tumor volume (mm^3)-D28” value is 198 mm^3. In [2] (75 mg/kg), the TGI stood at 104%, the “Tumor volume (mm^3)-D1” value is reported as 176 mm^3 and the “Tumor volume (mm^3)-D28” value is 140 mm^3. The IC50 in the data set on SDMA/HCT116-MTAPwt was found to be 256 nM. Further, in the data set with HCT116-MTAPdel, the IC50 came to 9 nM and the “HCT116WT IMTAPdel selectivity” value stood at 194. The F in [3] was 75%. In data set [3] (iv, 2 mg/kg), this compound showed an AUC(0-t) of 788 ng·h/mL, a C0 of 733 ng/mL, a clearance of 41.8 mL/min/kg and a half-life of 1.4 h. Also, in [3] (po, 10 mg/kg), the AUC(0-t) was 2580 ng·h/mL, the concentration peaked (Cmax) at 798 ng/mL, the Tmax came out at 0.25 h and the half-life was 1.7 h. The compound further returned a CLint scaled at 1 µM in [4] of 242 mL/min/kg. Besides, in “in vitro [5]”, the Papp A→B amounted to 10.5 ×10⁻⁶ cm/s and the Papp B→A came to 13.5 ×10⁻⁶ cm/s. Moreover, the efflux ratio with MDR1 (P-gp) is 1.28. Moreover, in the data set with SDMA/HCT116-MTAPdel (Homo sapiens, HCT-116, HCT116 MTAP-deficient cells, 96 hours), the IC50 was found to be 0.3 nM. The “Selectivity wt/MTAPdel” value with SDMA/HCT116-MTAPdel (ratio SDMA IC50 wt / MTAPdel) is reported as 853. Moreover, at hERG channels, the IC50 worked out at 2900 nM. In data set [6], the CLint scaled at 1 µM came to 32 mL/min/kg.

One may read the CLint scaled as the capacity of the preparation to metabolise the compound, expressed as a volume cleared per time. Read a high CLint scaled as rapid turnover. By AUC(0-t) is commonly meant the area under the concentration-time curve up to a stated or last time point. Low values mean less exposure, high ones more exposure. By clearance is commonly meant the volume of plasma or blood freed of the substance per unit of time. The half-life is the time in which the quantity being followed falls by half. A lower half-life goes with rapid decline. As a reminder, the Cmax is the maximum level reached in the sampled fluid or tissue. What is called Tmax is the time from dosing to the highest level. The Papp A→B is how fast a substance crosses the layer from the apical side. Higher therefore signals ready permeation. What is called Papp B→A is the apparent permeability from the basolateral to the apical side of a cell layer. The term efflux ratio denotes a quotient of directional permeabilities that is used to spot active efflux.
